{
  "source": "paper PMC12363935",
  "about": "“Unc-51 Like Kinase 3 (ULK3) is essential for autophagy and cell survival in multiple myeloma” (Research Square, 2025)",
  "key": {"primary CD138+ MM cells": {"system": "primary CD138+ MM cells", "assay": "EMMA ex vivo platform, live cell imaging, 96 hours, collagen matrix with bone marrow stroma and patient plasma", "assay_type": "cell-based", "set-up": "scale not given here", "from_the_text": "For clinical robustness, we tested the activity of MA9 in MM patient samples using our ex vivo mathematical myeloma advisor (EMMA) platform (Supplementary Table 1). […]\nFor these assays, we used a novel EMMA platform developed at Moffitt. Further details are included in the supplemental Materials. […]\n400 Ex vivo drug sensitivity characterization\n401 An ex vivo assay was used to quantify the chemosensitivity of primary MM cells. Fresh BM\n402 aspirate cells were enriched for CD138+ expression using Miltenyi (Bergisch Gladbach, Germany)\nMM cells (CD138+) were seeded in Corning\n404 Cell BIND 384 well plates (Corning, NY) with collagen I and previously established human-\n407 inactivated), penicillin/streptomycin, and patient-derived plasma (10%, freshly obtained from\n409 added using a robotic plate handler so that every drug/combination was tested at 5 (fixed\n410 concentration ratio, for combinations) concentrations (1:3 serial dilution) in two replicates.\n411 Negative controls (supplemented growth media with and without the vehicle control dimethyl\n412 sulfoxide [DMSO]) were included, as well as positive controls for each drug (cell line MM1.S at\n413 highest drug concentration). Plates were placed in a motorized stage microscope (EVOS Auto FL,\n414 Life Technologies, Carlsbad, CA) equipped with an incubator and maintained at 5% CO2 and 37\n415 °C. […]\nDigital image analysis computes the percent\n418 viability of MM cells for each time point and experimental condition (drug and concentration)"}, "BRD4-1": {"target": "T1, BRD4-1 (Homo sapiens, UniProt O60885)", "T1 construct": "evaluated against Bromodomain 1 by Reaction Biology Corporation; purchased Reaction Biology Corporation", "assay": "Bromodomain profiling assay, AlphaScreen binding, H4/4Ac ligand", "settings": "NA = no activity", "experimental": "331 Bromodomain profiling assay\n333 evaluated against Bromodomain 1 by Reaction Biology Corporation.\n334 The compounds were subjected to testing using a 10-dose IC50 singlet approach, involving a 3-\n335 fold serial dilution starting at 10 μM, specifically against BRD4-1. Additionally, as a benchmark,\n340 Detection was carried out through the AlphaScreen Binding assay with excitation/emission\n341 wavelengths set at 680/520-620 nm, respectively, using the Enspire platform.\n342 The data acquisition included raw data, represented as signal-background*, % Binding (relative to\n343 DMSO controls), and curve fits."}, "U266-Luc MM cells": {"system": "U266-Luc MM cells", "assay": "U266-Luc in vivo model, tail vein injection", "settings": "10 mg/kg/day subcutaneously, M-F", "method": "For the U266-Luc model, 1 × 10^6 cells (100 μl/PBS) were tail vein injected into 4- to 6-week-old female and male NSG mice. […] Endpoint was represented by hind limb paralysis or >20% weight loss. When sacrificed, tumors tibiae were harvested and fixed in 10% neutral buffered formalin for 24 hours. Bioluminescent signal is reported as the average of the sum of dorsal and ventral signal of the mice/group/timepoint. […]\n28 Animal Experimentation: All animal experiments were performed with approval from the\n29 Moffitt/University of South Florida Institutional Animal Care and Use Committee (Protocol\n31 validation of MA9 efficacy (Figure 4), we initially included n = 10 mice per treatment group:\nRandomization based on sex, weight,\n33 and initial tumor burden was conducted, followed by treatment with either vehicle control (n = 6),\n35 Tumor progression was tracked via bioluminescence: endpoint was paralysis or >20% weight loss.\n36 Experiments were blinded. […]\n38 For MA9 therapy efficacy, mice were treated with vehicle (n=10) or MA9 (10 mg/kg/day,\n39 subcutaneously, M-F from day 20; n=10) (Supplementary Fig. 7E, F). Survival and toxicity\n40 (weight, clinical signs) was monitored.\n43 Luciferase-labeled MM cells 5TGM1-Luc (RRID: CVCL_VI66) and U266-Luc (RRID: […]\n51 cells (all from the ATCC, USA) were routinely cultured at 37 °C in Roswell Park Memorial\n53 FBS1) and penicillin/streptomycin (hereafter, complete medium).\n54 Cells were not used for five days following PI-treatment. All myeloma cell lines were […]"}, "[1]": {"system": "human mesenchymal stem cells (hMSCs)", "assay": "MTS assay on hMSCs", "assay_type": "cell-based", "settings": "nM concentration", "method": "complex. Supplementary Figure 5. […]\nhere as reference for BRD4 inhibitory activity. […] NA=\n1 hour incubation with liver microsomes. C.\nULK3 rendered in Pymol (Schrodinger Inc.) at a 2.8 Å resolution. D. Table summarizing hULK3-MA9060 crystallographic data collection and refinement statistics. E. MA9060 is a dual inhibitor, able to decrease both ULK3 and MYC protein levels in MYC-dependent MM1.S MM cells. JQ1 is here included as the control for […]\nmesenchymal stem cells (hMSCs) at 24 (G) and 48 (H) hours."}},
  "note": "Where “and” joins values, the source holds several entries; their conditions need not be identical. Equal values may be shown once.",
  "data": [
    {"smiles": "Cc1cnc(Nc2ccc(C3CCN(C)CC3)c(F)c2)nc1Nc1ccc(Cl)c(NS(=O)(=O)C(C)(C)C)c1", "note": "[MA9060]", "values": [
      {"measurement": "AUC", "setting": "primary CD138+ MM cells; Pt648, LRMM", "result": 42.835},
      {"measurement": "AUC", "setting": "primary CD138+ MM cells; Pt653, LRMM", "result": 41.560},
      {"measurement": "AUC", "setting": "primary CD138+ MM cells; Pt655, LRMM, listed as MA9", "result": 26.03},
      {"measurement": "AUC", "setting": "primary CD138+ MM cells; Pt663, LRMM, listed as MA9", "result": 47.02},
      {"measurement": "AUC", "setting": "primary CD138+ MM cells; Pt665, LRMM, listed as MA9", "result": 70.14},
      {"measurement": "AUC", "setting": "primary CD138+ MM cells; Pt666, LRMM, listed as MA9", "result": 49.23},
      {"measurement": "AUC", "setting": "primary CD138+ MM cells; Pt669, ERMM, listed as MA9", "result": 29.51},
      {"measurement": "AUC", "setting": "primary CD138+ MM cells; Pt672, NDMM, listed as MA9", "result": 49.16},
      {"measurement": "AUC", "setting": "primary CD138+ MM cells; Pt677, NDMM", "result": "43.301 and 45.593"},
      {"measurement": "AUC", "setting": "primary CD138+ MM cells; Pt680, ERMM", "result": 42.605},
      {"measurement": "AUC", "setting": "primary CD138+ MM cells; Pt680, ERMM, listed as MA9", "result": 35.24},
      {"measurement": "AUC", "setting": "primary CD138+ MM cells; Pt685, ERMM, listed as MA9", "result": 100},
      {"measurement": "AUC", "setting": "primary CD138+ MM cells; Pt689, NDMM", "result": 97.182},
      {"measurement": "AUC", "setting": "primary CD138+ MM cells; Pt691, LRMM, listed as MA9", "result": 68.66},
      {"measurement": "AUC", "setting": "primary CD138+ MM cells; Pt693, SMOL, listed as MA9", "result": 70.97},
      {"measurement": "AUC", "setting": "primary CD138+ MM cells; Pt694, NDMM, listed as MA9", "result": 47.51},
      {"measurement": "AUC", "setting": "primary CD138+ MM cells; Pt695, LRMM, listed as MA9", "result": 70.64},
      {"measurement": "AUC", "setting": "primary CD138+ MM cells; Pt697, NDMM, listed as MA9", "result": 65.92},
      {"measurement": "AUC", "setting": "primary CD138+ MM cells; Pt700, NDMM", "result": 71.574},
      {"measurement": "AUC", "setting": "primary CD138+ MM cells; Pt700, NDMM, listed as MA9", "result": 71.39},
      {"measurement": "AUC", "setting": "primary CD138+ MM cells; Pt707, LRMM, listed as MA9", "result": 73.56},
      {"measurement": "AUC", "setting": "primary CD138+ MM cells; Pt718, SMOL, listed as MA9", "result": 76.17},
      {"measurement": "AUC", "setting": "primary CD138+ MM cells; Pt737, MGUS", "result": 42.854},
      {"measurement": "AUC", "setting": "primary CD138+ MM cells; Pt738, NDMM, listed as MA9", "result": 65.97},
      {"measurement": "AUC", "setting": "primary CD138+ MM cells; Pt740, SMOL", "result": 62.223},
      {"measurement": "AUC", "setting": "primary CD138+ MM cells; Pt745, NDMM", "result": 55.970},
      {"measurement": "AUC", "setting": "primary CD138+ MM cells; Pt825, NDMM", "result": 100},
      {"measurement": "AUC", "setting": "primary CD138+ MM cells; Pt852, NDMM", "result": 41.956},
      {"measurement": "AUC", "setting": "primary CD138+ MM cells; Pt853, ERMM", "result": "49.879 and 54.514"},
      {"measurement": "AUC", "setting": "primary CD138+ MM cells; Pt856, NDMM, listed as MA9", "result": 72.33},
      {"measurement": "AUC", "setting": "primary CD138+ MM cells; Pt865, LRMM, listed as MA9", "result": 59.28},
      {"measurement": "AUC", "setting": "primary CD138+ MM cells; Pt866, NDMM, listed as MA9", "result": 37.56},
      {"measurement": "AUC", "setting": "primary CD138+ MM cells; Pt875, NDMM, listed as MA9", "result": 21.1},
      {"measurement": "AUC", "setting": "primary CD138+ MM cells; Pt885, NDMM", "result": 28.777},
      {"measurement": "AUC", "setting": "primary CD138+ MM cells; Pt885, NDMM, listed as MA9", "result": 27.78},
      {"measurement": "AUC", "setting": "primary CD138+ MM cells; Pt888, LRMM, listed as MA9", "result": 59.98},
      {"measurement": "AUC", "setting": "primary CD138+ MM cells; Pt893, LRMM", "result": 96.916},
      {"measurement": "AUC", "setting": "primary CD138+ MM cells; Pt899, SMOL", "result": 28.290},
      {"measurement": "AUC", "setting": "primary CD138+ MM cells; Pt906, NDMM, listed as MA9", "result": 43.69},
      {"measurement": "AUC", "setting": "primary CD138+ MM cells; Pt909, LRMM", "result": 46.043},
      {"measurement": "AUC", "setting": "primary CD138+ MM cells; Pt912, PCL", "result": 41.302},
      {"measurement": "AUC", "setting": "primary CD138+ MM cells; Pt917, LRMM", "result": 73.927},
      {"measurement": "AUC", "setting": "primary CD138+ MM cells; Pt920, LRMM", "result": 44.399},
      {"measurement": "AUC", "setting": "primary CD138+ MM cells; Pt923, LRMM, listed as MA9", "result": 28.34},
      {"measurement": "AUC", "setting": "primary CD138+ MM cells; Pt932, LRMM", "result": 45.003},
      {"measurement": "AUC", "setting": "primary CD138+ MM cells; Pt933, LRMM, listed as MA9", "result": 57.89},
      {"measurement": "AUC", "setting": "primary CD138+ MM cells; Pt935, NDMM, listed as MA9", "result": 25.47},
      {"measurement": "AUC", "setting": "primary CD138+ MM cells; Pt936, LRMM", "result": 83.700},
      {"measurement": "AUC", "setting": "primary CD138+ MM cells; Pt937, NDMM", "result": "48.139 and 40.693"},
      {"measurement": "AUC", "setting": "primary CD138+ MM cells; Pt940, LRMM", "result": 72.923},
      {"measurement": "AUC", "setting": "primary CD138+ MM cells; Pt945, LRMM", "result": 39.091},
      {"measurement": "AUC", "setting": "primary CD138+ MM cells; Pt948, LRMM, listed as MA9", "result": 24.69},
      {"measurement": "AUC", "setting": "primary CD138+ MM cells; Pt951, ERMM, listed as MA9", "result": 62.38},
      {"measurement": "AUC", "setting": "primary CD138+ MM cells; Pt956, NDMM", "result": "67.208 and 74.021"},
      {"measurement": "AUC", "setting": "primary CD138+ MM cells; Pt957, LRMM", "result": 80.043},
      {"measurement": "AUC", "setting": "primary CD138+ MM cells; Pt961, NDMM", "result": "66.118 and 49.072"},
      {"measurement": "IC50", "setting": "BRD4-1", "result": 3.8, "unit": "nM"},
      {"measurement": "MM-induced osteolysis (X-ray, histology)", "setting": "U266-Luc MM cells", "result": "significantly protected against MM-induced osteolysis"},
      {"measurement": "toxicity (weight loss, lethargy, ruffled hair)", "setting": "U266-Luc MM cells", "result": "did not show any sign of toxicity"},
      {"measurement": "tumor growth (bioluminescence) vs control", "setting": "U266-Luc MM cells", "result": "significantly impaired tumor growth"},
      {"measurement": "toxicity (weight loss, lethargy, ruffled hair)", "setting": "U266-Luc MM cells; listed as MA9", "result": "no overt toxicities"},
      {"measurement": "toxicity to normal primary human MSCs", "setting": "[1]", "result": "not toxic"}
    ]}
  ]
}
